Data on three compounds can be found in patent US9581587B2, “Sperm staining and sorting methods” (INGURAN, LLC, priority 2011, dated 2017).

Assay [1] concerns sperm. Briefly: Split quality, height of peak divided by height of valley (Example 5). In kind it is cell-based, Jersey bull. How it is done: (§1) A single Jersey bull was collected at an initial sperm concentration 1900×10^6 sperm/ml in a volume of 5 ml. The progressive motility of the sperm was 65% with normal morphologies greater than 65%.
(§2) The entire ejaculate of sperm was suspended in first staining buffer, specifically a 7.4 pH TALP described in TABLE 1, to a concentration of 160×10^6 sperm per mL (determined on nucleocounter) and divided into three aliquots of about 20 mL into 50 mL Falcon tubes and pre-warmed for 10 minutes at 34° C. The DNA selective fluorescent dye, Hoechst 33342, was added and samples were held at 34° C. for 60 minutes. 3 different Hoechst 33342 Stain Levels were used=12 μL, 14 μL and 16 μL per 2 mL (effective concentrations of 48 μM, 56 μM, 64 μM).
(§3) Preparation of the second buffer including the dead quenching dye—A 2 L bag of TALP, described in TABLE 1, was adjusted to pH 5.60 using HCl and then sterile filtered. […] For each of the four dyes tested (R40-red food dye No. 40, Y5—yellow food dye No. 5, Y6—yellow food dye No. 6 and PR—phenol red), an appropriate number of milligrams of each powder was placed in a Erlenmeyer Flask and then an exact amount of TALP pH 5.60 was added to create a 250 μM concentration of the dye. The result was a working TALP stock for each dye with a 100% (125 μM) relative amount of dye 50% relative (62.5 μM) and 20% relative (25 μM) solutions were made by dilution of 100% by TALP pH 5.60.
(§4) Single tubes of stained sperm at each of the three Hoechst 33342 concentrations were treated with TALP pH 5.60 which had no dead quenching dye present. Single tubes using Vitamin B12 (red colored chemical) with stock concentration of 15 μM (12% relative) were tested.
(§5) After this “bulk” staining for 60 minutes, 1 mL aliquots of stained sperm were combined with 1 mL aliquots of the second buffer including the dead quenching dyes. Samples sat for approximately 30 minutes at room temperature before being analyzed on a MoFlo SX (Beckman Coulter, USA) sperm sorting flow cytometer. Event rates were held as close to 13,000 as possible at the point of data acquisition.
(§6) The total number of individual treatments was 42 tubes, each containing 2 mL of stained sample. The alignment of the sorter was established using nuclei and confirmed with live sample from the 50% Red 40 series. Once good alignment was established, each tube was placed on the sorter long enough to establish a stabile dead gate population (about 30 seconds) and then a screenshot was taken and saved as a .jpeg image. This approach of rapidly documenting each sample is used to assure the most consistent alignment between all samples. Realignment of sorter will not cause differences in the intensities of live and dead gate populations but will cause differences in split quality.
(§7) FIG. 4 illustrates an example histogram. The ratio of dead gate intensity divided by live gate intensity is created by dividing the distance “A” by the distance “B” shown as a percentage. Lower values mean higher levels of quenching. The ratio of peak height divided by valley height is created by dividing the distance “C” by the distance “D”. A value of 1.00 means “no split” while higher values mean “better splits”.

Assay [2] concerns sperm. The assay is described as follows: Split quality PV (Example 6). It counts as cell-based, Jersey bull. Conditions: for PV: Hoechst 12 μL/2 mL, resulting pH 6.70. The method, then:
(§8) A single Jersey bull was collected at an initial sperm concentration 1810×10^6 sperm/ml in a volume of 3.9 ml. The progressive motility of the sperm was 65% with normal morphologies greater than 50%.
(§9) Sperm were suspended at 320 million per mL in 30 mL a first buffer, (TALP described in table 1 at a pH 7.4) with 12 μL of Hoechst 33342 per 2 mL (48 μM) of stain and incubated for 1 hour at 34° C. Stained sperm was then placed as 1 mL aliquots in sample tubes and a 1 mL volume of the appropriate TALP was added. The same second buffer was used as example 1, namely a modified 5.60 pH TALP.
(§10) Each of the stained samples was sorted on a MoFlo SX (Beckman Coulter, USA) as described in Example 6. Screen shots were taken and the dead gate intensity and the split quality were measured in the same way described in Example 1 and recorded in TABLE 14.

In assay [3] the test system is sperm. Briefly: Post thaw motility Deer (Example 3). It counts as cell-based. Conditions: post thaw 0 HR; RED TALP with 16 μL Hoechst 33342, Y6 with 14 μL. The method, then: Each of deer and elk were collected in the Tris-egg yolk catch fluid described as a catch media in Example 1, and shipped for sorting.
A portion of each of the deer and the elk were stained by the red food dye No. 40 treatment 40% with 16 μL Hoechst 33342 and the yellow food dye No. 6 treatment with 14 μL Hoechst 33342 as described in Example 1.
Samples were each bulk sorted with the same machine and parameters described in Example 1. Both sorted X and sorted Y sperm were collected into a single catch. The sorted samples were then frozen like those described in Example 1.
Frozen thawed samples were then tested for post thaw motilities and post thaw DNA fragmentation. Post thaw motilities were slightly higher in Elk sorted with a yellow quencher, while a more significant difference existed in progressive motility. In Table 10, post thaw DNA fragmentation in Elk can be seen at about double after 48 hours when red food dye No. 40 is compared to yellow food dye No. 6 as a dead quencher.

The test system of assay [4] is membrane compromised sperm. Briefly: Dead gate intensity, yellow 5 and phenol red at higher concentrations (Example 6). It counts as cell-based, Jersey bull. Conditions: for Intensity: Hoechst 12 μL/2 mL. How it is done: as §8, §9, §10
The subject of assay [5] is membrane compromised sperm. Briefly: Dead gate intensity divided by live gate intensity, flow cytometer (Example 5). It counts as cell-based. Conditions: for ability to create a dead gate population (ordering of the four dyes): from dead and live intensity data of Table 13. The method, then: as §1, §2, §3, §4, §5, §6, §7
For orientation: In flow cytometry, cells or beads pass a laser one at a time.

Setting [6] is: dye 62.5 μM, Hoechst 12 μL/2 mL.
The mark [7] stands for this setting: dye 62.5 μM, Hoechst 16 μL/2 mL.
[8] abbreviates: dye 25 μM, Average over Hoechst levels.
[9] abbreviates: dye 62.5 μM, Average over Hoechst levels.
Where [10] appears, read: dye 62.5 μM, Hoechst 14 μL/2 mL.
[11] abbreviates: dye 125 μM, Average over Hoechst levels.

Consider `O=S(=O)([O-])c1ccc(N=Nc2c(O)ccc3cc(S(=O)(=O)[O-])ccc23)cc1.[Na+].[Na+]` [Yellow 6, Disodium 6-hydroxy-5[(4-sulfophenyl)azo]-2-naphthalenesulfononate], for which the “Height of Peak/Height of Valley” value in assay [1] (setting [6]) came out at 1.70; in assay [1] (setting [7]), 1.00; in assay [1] (dye 125 μM, Hoechst 14 μL/2 mL), 1.80. In addition, in assay [2] (dye 62.5 μM), the PV is 1.00. This compound had a Motile in assay [3] of 67.5. The compound also showed a Progressive in assay [3] of 53.2. This compound also returned an Intensity in assay [4] (dye 62.5 μM, resulting pH 6.70) of 50%. Moreover, the “Dead Intensity” value in assay [5] (setting [8]) came to 71%; in assay [5] (dye 25 μM, Hoechst 12 μL/2 mL) it was 68%; in assay [5] (dye 25 μM, Hoechst 14 μL/2 mL), 74%; in assay [5] (dye 25 μM, Hoechst 16 μL/2 mL), 70%; in assay [5] (setting [9]), 51%; in assay [5] (setting [6]), 50%. Besides, the “Dead Intensity” value in assay [5] (setting [10]) amounted to 52%; in assay [5] (setting [7]) it was 52%; in assay [5] (setting [11]), 39%; in assay [5] (dye 125 μM, Hoechst 12 μL/2 mL), 37%; in assay [5] (dye 125 μM, Hoechst 14 μL/2 mL), 40%; in assay [5] (dye 125 μM, Hoechst 16 μL/2 mL) it was 40%. The “ability to create a dead gate population (ordering of the four dyes)” value in assay [5] was “about equal and better than the remaining dyes”.
As to `COc1cc(S(=O)(=O)O)c(C)cc1N=Nc1c(O)ccc2cc(S(=O)(=O)O)ccc12` [Red 40, 6-hydroxy-5-[(2-methoxy-5-methyl-4-sulfophenyl)azo]-2-naphthalenesulfonic acid, reference compound], the “Height of Peak/Height of Valley” value in assay [1] (dye 25 μM, Average for 12 μL and 14 μL stain series) worked out at 2.00; in assay [1] (dye 25 μM, Hoechst 16 μL/2 mL) it was 1.00; in assay [1] (setting [7]), 1.00; in assay [1] (dye 125 μM, Hoechst 14 μL/2 mL), 2.00. Further, the PV in assay [2] (dye 62.5 μM) is recorded as 1.00. In assay [3], this compound registered a Progressive of 43.0. The same compound displayed an Intensity in assay [4] (dye 62.5 μM, resulting pH 6.70) of 53%. Further, the “Dead Intensity” value came out at 68% in assay [5] (setting [8]); 68% in assay [5] (dye 25 μM, Hoechst 12 μL/2 mL); 72% in assay [5] (dye 25 μM, Hoechst 14 μL/2 mL); 65% in assay [5] (dye 25 μM, Hoechst 16 μL/2 mL); 52% in assay [5] (setting [9]); 53% in assay [5] (setting [6]). Also, the “Dead Intensity” value in assay [5] (setting [10]) was determined as 53%; in assay [5] (setting [7]), 50%; in assay [5] (setting [11]) it was 38%; in assay [5] (dye 125 μM, Hoechst 12 μL/2 mL), 37%; in assay [5] (dye 125 μM, Hoechst 14 μL/2 mL), 41%; in assay [5] (dye 125 μM, Hoechst 16 μL/2 mL), 35%. Moreover, in assay [5], the “ability to create a dead gate population (ordering of the four dyes)” value was “about equal and better than the remaining dyes”.
For `O=S1(=O)OC(c2ccc(O)cc2)(c2ccc(O)cc2)c2ccccc21` [Phenol Red, phenolsulfonphthalein], the “Height of Peak/Height of Valley” value in assay [1] (dye 25 μM, Hoechst 16 μL/2 mL) came to 1.00; in assay [1] (setting [7]), 1.00; in assay [1] (dye 125 μM, Hoechst 16 μL/2 mL), 1.00. Besides, the “split improvement in understained sample” value in assay [2] (12 μL/2 mL Hoechst 33342, control samples had no split) is given as “created a split improvement”. Also, the PV in assay [2] (dye 125 μM) is given as 1.00. Also, in assay [4], the “amount of dye needed for a similar dead gate intensity ratio as red food dye No. 40 and yellow food dye No. 6” value was “twelve”. Moreover, the Intensity in assay [4] (dye 125 μM, resulting pH 6.70) came out at 79%; in assay [4] (dye 250 μM, resulting pH 6.70) it was 70%; in assay [4] (dye 500 μM, resulting pH 6.70), 67%; in assay [4] (dye 750 μM, resulting pH 6.70), 55%; in assay [4] (dye 875 μM, resulting pH 6.70) it was 45%; in assay [4] (dye 1250 μM, second buffer pH 5.60, resulting pH 6.70) it was 41%. In addition, the “Dead Intensity” value in assay [5] (setting [8]) is listed as 94%; in assay [5] (dye 25 μM, Hoechst 12 μL/2 mL), 94%; in assay [5] (dye 25 μM, Hoechst 14 μL/2 mL) it was 97%; in assay [5] (dye 25 μM, Hoechst 16 μL/2 mL), 90%; in assay [5] (setting [9]) it was 87%; in assay [5] (setting [6]) it was 90%. Further, the “Dead Intensity” value in assay [5] (setting [10]) is listed as 90%; in assay [5] (setting [7]), 80%; in assay [5] (setting [11]), 79%; in assay [5] (dye 125 μM, Hoechst 12 μL/2 mL) it was 80%; in assay [5] (dye 125 μM, Hoechst 14 μL/2 mL), 80%; in assay [5] (dye 125 μM, Hoechst 16 μL/2 mL) it was 78%.
